Source: PubChem BioAssay AID1259407 (Chemical Carcinogenesis Research Information System (CCRIS), 2018)
The source made the active and inactive calls. The rule behind the calls is not given here.

Tested on: CCRIS mutagenicity, Ames/micronucleus/aberration tests
Experiment: CCRIS mutagenicity studies

CCCCCCCCCCCCC1CCC1=O (stereo not given)
mutagenic call (End Point: In vitro micronucleus, Test System: Human TK6 lymphoblasts, Metabolic Activation: None): active; positive (at highest dose) | mutagenic call (End Point: In vitro micronucleus, Test System: Human TK6 lymphoblasts, Metabolic Activation: Rat, Liver, S-9, Aroclor (1%)): active; positive (at highest dose) | mutagenic call (Test System: Ames Salmonella typhimurium, Strain/Indicator: TA98, Metabolic Activation: None, Method: Microtiter plate-based Miniscreen assay): inactive; negative | mutagenic call (Test System: Ames Salmonella typhimurium, Strain/Indicator: TA98, Metabolic Activation: Rat, Liver, S-9, Aroclor 1254 (5%), Method: Microtiter plate-based Miniscreen assay): inactive; negative | mutagenic call (Test System: Ames Salmonella typhimurium, Strain/Indicator: TA100, Metabolic Activation: None, Method: Microtiter plate-based Miniscreen assay): inactive; negative | mutagenic call (Test System: Ames Salmonella typhimurium, Strain/Indicator: TA100, Metabolic Activation: Rat, Liver, S-9, Aroclor 1254 (5%), Method: Microtiter plate-based Miniscreen assay): inactive; negative | mutagenic call (Test System: Ames Salmonella typhimurium, Strain/Indicator: TA1535, Metabolic Activation: None, Method: Microtiter plate-based Miniscreen assay): inactive; negative | mutagenic call (Test System: Ames Salmonella typhimurium, Strain/Indicator: TA1535, Metabolic Activation: Rat, Liver, S-9, Aroclor 1254 (5%), Method: Microtiter plate-based Miniscreen assay): inactive; negative | mutagenic call (Test System: Ames Salmonella typhimurium, Strain/Indicator: TA1537, Metabolic Activation: None, Method: Microtiter plate-based Miniscreen assay): inactive; negative | mutagenic call (Test System: Ames Salmonella typhimurium, Strain/Indicator: TA1537, Metabolic Activation: Rat, Liver, S-9, Aroclor 1254 (5%), Method: Microtiter plate-based Miniscreen assay): inactive; negative
